PubChem BioAssay (NCI)
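Interpolation was linear, between the two tested concentrations surrounding the appropriate level; five concentrations were tested over 48 hours in 96-well plates. GI50 marks 50% less growth. The concentration for full growth arrest is given as TGI.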

The compounds below were run on SNB-75 CNS (assay: DTP human tumour cell line panel, 48 h).

| Compound | TGI [µM] | GI50 [µM] |
| --- | --- | --- |
| N#CC(Cc1ccccc1)N(CCC1=CCCCC1)C(c1ccccc1)c1ccccc1 (stereo unspecified) | > 100 | – |
| C/C(=C\CBr)CCC(Br)C(C)(C)Br (stereo unspecified) | > 100 | – |
| C#CCn1c(=O)c2ccccc2n(CC#C)c1=O | > 10 | – |
| O=C1CCC2(c3ccc(Cl)cc3)Nc3ccncc3N12 (stereo unspecified) | > 10 | – |
| Oc1ccc(Cc2cc(Cc3ccc(O)cc3)cc(Cc3ccc(O)cc3)c2)cc1 | > 50 | – |
| [N-]=[N+]=NC(c1ccccc1)(c1ccccc1)c1ccccc1 | 34.4 | – |
| C[C@]12CC[C@H](O)CC1=CC[C@@H]1[C@@H]2CC[C@]2(C)C(=N/N)/C(=N\O)C[C@@H]12 | 30.5 | – |
| COc1ccc(CN2C(=O)/C(=C\c3cc(OC)c(OC)c(OC)c3)c3ccccc32)cc1 | > 100 | 4.08 |
| CCOP(=O)(OCC)C(F)(F)c1ccc(CC(NC(=O)OC(C)(C)C)C(=O)O)cc1 (stereo unspecified) | > 10 | – |
| O=C(C1OC1c1ccc(Br)cc1O)C12CC3CC(CC(C3)C1)C2 (stereo unspecified) | 58.1 | – |
| Cc1ccccc1OC(C)C(=O)NN1C(=O)CSC1c1ccccc1 (stereo unspecified) | > 100 | – |
| CC(C)=CCC[C@@H](C)c1c(O)c(O)c(C)c2nccnc12 | > 100 | – |
| Cc1ccc(-c2cc(-c3ccco3)c(C#N)c(=S)n2C2OC(CO)C(O)C(O)C2O)cc1 (stereo unspecified) | > 100 | – |
| O=C(OCc1ccccc1)N1CCNCCN(C(=O)OCc2ccccc2)CCNCC1 | 85.2 | – |
| O=C(Cc1ccc(O)c(O)c1)NCc1c[nH]c2ccccc12 | > 100 | – |
| COc1nncc2[nH]c(-c3ccccc3)cc12 | > 100 | – |
| O=S(=O)(c1ccccc1)c1cccc2c1NCCC2 | > 100 | – |
| COP(=O)(OC)C1=c2c(C)noc2=C2C=COC2C1=O (stereo unspecified) | > 100 | – |
| COc1cccc(C2SC(N)=Nc3c2c(C)nn3C(=O)c2ccccc2O)c1 (stereo unspecified) | > 10 | – |

These compounds were tested on SK-MEL-28 melanoma (assay: DTP human tumour cell line panel, 48 h).

| Compound | TGI [µM] | GI50 [nM] |
| --- | --- | --- |
| CCOC(=O)c1c(CN2CCCC2)n(-c2ccccc2)c2cc(Br)c(O)cc12 | 29.7 | – |
| COc1cccc(Nc2nc(-c3cccs3)nc3cc(OC)c(OC)cc23)c1 | > 100 | – |
| Nn1c(-c2ccccc2)n[nH]c1=O | > 100 | – |
| Cc1cc(-c2nc3ccc(F)cc3s2)ccc1NC(=O)[C@H](C)N | 29.3 | – |
| Cc1cc(Nc2ccc(S(=O)(=O)O)c3cc(S(=O)(=O)O)cc(S(=O)(=O)O)c23)c2ccccc2n1 | > 100 | – |
| Cc1cc(C)nc(NS(=O)(=O)c2ccc(NC(=O)c3ccc4nc5ccccc5c(Nc5ccc(S(N)(=O)=O)cc5)c4c3)cc2)n1 | > 100 | – |
| Nc1c(-c2ccc(Cl)c(Cl)c2)c2ccc([N+](=O)[O-])cc2c(=O)n1-c1nc2ccccc2s1 | > 100 | – |
| CC1(C(=O)O)CCC2(C)CCC3(C)C(=CC(=O)C4C5(C)CCC(O)C(C)(C)C5CCC43C)C2C1 (stereo unspecified) | 52.4 | – |
| COC(=O)c1c(C)nc2c1cc(O)c1[nH]c(C)c(C)nc12 | > 100 | – |
| Cn1c2ccc3cc2c(=S)c2cc(ccc21)OCCOCCOCCOCCOCCOCCO3 | > 10 | – |
| O=[N+]([O-])c1cc(C=NC23CC4CC(CC(C4)C2)C3)ccc1Cl | 38 | – |
| COc1cc(S(=O)(=O)Nc2nc(-c3ccc(N4C(=O)C(CC(=O)O)SC4c4cccs4)cc3)cs2)ccc1Cl (stereo unspecified) | > 100 | – |
| CCCCCC1=CC(=O)C1(Cl)Cl | 36.8 | – |
| CC(=O)N(C(=O)CC(=O)N1N=C(c2ccccc2)C(N=Nc2ccccc2[N+](=O)[O-])C1=O)c1ccc(Cl)cc1 (stereo unspecified) | > 10 | – |
| Oc1ccccc1CNCc1nc2ccccc2[nH]1 | > 100 | – |
| COc1ncc(/C=C2\OC(=O)c3ccccc32)c(OC)n1 | > 100 | – |
| CC1(C)O[C@H]2OC(CO[Si](C)(C)C(C)(C)C)C(N=[N+]=[N-])[C@H]2O1 (stereo partly specified) | 60.9 | – |
| C[C@]12CCC3C4=C(CCC3C1CCC2=O)C(=O)[C@H]1O[C@H]1C4=O (stereo partly specified) | 25.4 | – |
| O=[N+]([O-])c1ccc(Cl)cc1N/N=C/c1ccnc2ccccc12 | > 100 | – |
| Oc1[nH]c2ccccc2c1N=Nc1nc(-c2ccc(Br)cc2)cs1 | 53.9 | – |
| CC(C)c1cc2c(cc1S(=O)(=O)O)[C@@]1(C)CCC[C@@](C)(C(=O)O)C1CC2 (stereo partly specified) | > 100 | – |
| N#CC(Cc1ccccc1)N(CCC1=CCCCC1)C(c1ccccc1)c1ccccc1 (stereo unspecified) | > 100 | – |
| C/C(=C\CBr)CCC(Br)C(C)(C)Br (stereo unspecified) | > 100 | – |
| C#CCn1c(=O)c2ccccc2n(CC#C)c1=O | > 10 | – |
| Oc1ccc(Cc2cc(Cc3ccc(O)cc3)cc(Cc3ccc(O)cc3)c2)cc1 | > 50 | – |
| [N-]=[N+]=NC(c1ccccc1)(c1ccccc1)c1ccccc1 | 37.8 | – |
| COc1ccc(CN2C(=O)/C(=C\c3cc(OC)c(OC)c(OC)c3)c3ccccc32)cc1 | 3.74 | 1820 |
| CCOP(=O)(OCC)C(F)(F)c1ccc(CC(NC(=O)OC(C)(C)C)C(=O)O)cc1 (stereo unspecified) | > 10 | – |
| O=C(C1OC1c1ccc(Br)cc1O)C12CC3CC(CC(C3)C1)C2 (stereo unspecified) | 46.8 | – |
| Cc1ccccc1OC(C)C(=O)NN1C(=O)CSC1c1ccccc1 (stereo unspecified) | > 100 | – |
